In patent US12150998B2, “Bicyclic peptide ligands specific for P-selectin” (BicycleTx Limited, priority 2021, dated 2024):
pIC50, pKd: −log10 of the molar value. Where two headings read alike, the source gives them in different places. Starred links: 1 amine or outer side, 2 acyl side, 3 side chain; linkers in the order of their positions; H or OH if unused. Positions of bridges follow the written chain, without caps; N, C: chain ends. Non-standard residues stand in square brackets, D forms with d. Residues, ends and D or L forms follow the SMILES beside them. Chains are numbered I, II in the order given. X2 = O=C(CCCC(=O)NCCOCCOCCOCCOCCOCCOCCOCCOCCOCCOCCOCCOCCOCCOCCOCCOCCOCCOCCOCCOCCOCCOCCOCCn1cc(CCC(=O)[*:2])nn1)NCCOCCOCCOCCOCCOCCOCCOCCOCCOCCOCCOCCOCCOCCOCCOCCOCCOCCOCCOCCOCCOCCOCCOCCn1cc(CCC(=O)[*:1])nn1; X1 = O=C(C[*:1])N1CCN(C(=O)C[*:2])CCN(C(=O)C[*:3])CC1; 1Nal = N[C@@H](Cc1cccc2ccccc12)C(=O)O

Legend:
[1] = target: T1, P-Selectin:PSGL1 interaction (Homo sapiens, UniProt P16109); assay: Receptor ligand inhibition assay (P-Selectin binding to HL-60 cells); type: cell-based; settings: for Inhibition at top concentration: 100−% response at top concentration
T1 construct: host or cells: HL-60 cells (ATCC, CCL-240) supply the PSGL-1 partner endogenously
T1 sequence (P16109 42-771 limits assumed): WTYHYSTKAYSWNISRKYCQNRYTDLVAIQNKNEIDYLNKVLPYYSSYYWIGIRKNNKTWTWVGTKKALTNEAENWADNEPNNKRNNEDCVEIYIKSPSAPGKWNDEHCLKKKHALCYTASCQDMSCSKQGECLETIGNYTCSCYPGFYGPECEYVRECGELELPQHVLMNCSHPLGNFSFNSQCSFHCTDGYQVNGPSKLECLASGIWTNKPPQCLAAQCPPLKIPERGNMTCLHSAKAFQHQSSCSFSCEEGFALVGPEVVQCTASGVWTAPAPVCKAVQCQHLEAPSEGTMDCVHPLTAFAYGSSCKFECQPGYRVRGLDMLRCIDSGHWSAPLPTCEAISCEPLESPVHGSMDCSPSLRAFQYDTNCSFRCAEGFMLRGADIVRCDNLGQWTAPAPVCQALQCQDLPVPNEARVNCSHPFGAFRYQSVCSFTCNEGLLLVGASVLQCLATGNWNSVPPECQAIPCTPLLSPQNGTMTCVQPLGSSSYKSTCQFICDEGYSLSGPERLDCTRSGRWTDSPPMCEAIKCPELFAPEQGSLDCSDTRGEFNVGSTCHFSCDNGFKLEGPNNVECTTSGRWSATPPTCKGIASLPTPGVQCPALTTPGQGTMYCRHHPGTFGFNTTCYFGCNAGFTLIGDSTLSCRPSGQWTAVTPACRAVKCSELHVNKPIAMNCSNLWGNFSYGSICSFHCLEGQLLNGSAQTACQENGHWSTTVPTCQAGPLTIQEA
Description: Bicycle test samples, SelG1 (Crizanlizumab) were serially diluted maintaining 0.5% DMSO in assay buffer (25 mM HEPES, 121 mM NaCl, 5.4 mM KCl, 0.8 mM MgCl2, 1.8 mM CaCl2), 6 mM […], 5.5 mM glucose, 1% BSA, pH7.4) and transferred to 384 well clear bottom plates (Corning, 3712) with a final volume of 6 μL. […], of P-Selectin in imaging buffer (25 mM HEPES, 121 mM NaCl, 5.4 mM KCl, 0.8 mM MgCl2, 1.8 mM CaCl2), 6 mM […], 5.5 mM glucose, pH7.4) was added to give a 5 nM final concentration and incubated at room temperature for 15 minutes. HL-60 cells (ATCC, CCL-240) mixed with 1 μg/mL far red labelled wheat germ agglutinin (WGA, ThermoFisher W21404) and 1 μg/mL AlexaFluor 488-streptavidin (Invitrogen S11223) were added to the plate and incubated for 2 hours at room temperature in the absence of light. Staining and antibody binding were quantified by simultaneously scanning the microplates with 488 nm and 640 nm lasers on a mirrorball microplate cytometer, AF488 on FL2 triggering on AF647-WGA on FL4. Data was analysed in Dotmatics, using a four parameter logistic fit to generate IC50 values and % response. Percent inhibition was calculated using 100−% response at top concentration.

[2] = target: T2, human P-Selectin protein (Homo sapiens, UniProt P16109); assay: SPR binding assay (Biacore); settings: Affinity KD determined by SPR, recombinant biotinylated human P-Selectin, 25° C.
T2 sequence (P16109 42-830): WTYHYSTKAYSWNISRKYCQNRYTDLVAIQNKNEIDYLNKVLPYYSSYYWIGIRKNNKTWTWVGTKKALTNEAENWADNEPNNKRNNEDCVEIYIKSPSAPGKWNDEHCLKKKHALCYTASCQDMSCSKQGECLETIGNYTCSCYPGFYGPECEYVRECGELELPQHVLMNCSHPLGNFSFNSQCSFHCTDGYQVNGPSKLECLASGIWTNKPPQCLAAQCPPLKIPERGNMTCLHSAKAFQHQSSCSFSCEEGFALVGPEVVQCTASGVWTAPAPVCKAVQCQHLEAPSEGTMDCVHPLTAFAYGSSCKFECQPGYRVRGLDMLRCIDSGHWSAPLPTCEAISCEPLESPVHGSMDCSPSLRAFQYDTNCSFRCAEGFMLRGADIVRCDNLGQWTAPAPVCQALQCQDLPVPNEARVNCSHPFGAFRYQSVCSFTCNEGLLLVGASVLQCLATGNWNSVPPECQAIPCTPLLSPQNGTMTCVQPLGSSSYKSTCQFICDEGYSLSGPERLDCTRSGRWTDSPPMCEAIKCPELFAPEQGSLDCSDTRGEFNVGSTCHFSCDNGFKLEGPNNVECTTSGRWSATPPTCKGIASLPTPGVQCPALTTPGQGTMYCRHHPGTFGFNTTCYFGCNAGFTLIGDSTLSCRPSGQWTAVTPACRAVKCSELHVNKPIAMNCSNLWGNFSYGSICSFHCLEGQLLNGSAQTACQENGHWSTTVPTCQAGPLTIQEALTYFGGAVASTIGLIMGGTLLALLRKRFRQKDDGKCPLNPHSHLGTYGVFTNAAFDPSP
How it was run: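 Biotinylated recombinant human P-Selectin was captured on a streptavidin chip (1000-1500 RU), and monomeric peptides were injected in PBS/0.05% Tween 20 with 0.5% DMSO at 25 °C (top 200 nM–50 μM, 2- or 3-fold series). Double-referenced data were fitted to a kinetic model with mass transport to give ka, kd and KD.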

[3] = 5 nM P-Selectin, HL-60 cells, geomean of n=3, read-out: IC50

Row | SMILES | pIC50 [1, 3] | Inhibition at top concentration ([1]; geomean of n=3) [%] | pKd [2] | pIC50 [1]
1 | CC(C)C[C@@H]1NC(=O)[C@H](CO)NC(=O)[C@@H]2CCCN2C(=O)[C@H](C(C)C)NC(=O)[C@H](CC(=O)O)NC(=O)[C@@H]2CSCC(=O)N3CCN(CCN(CC3)C(=O)CSC[C@@H](C(=O)N[C@@H](C)C(=O)N[C@@H](CCCCNC(=O)CCc3cn(CCOCCOCCOCCOCCOCCOCCOCCOCCOCCOCCOCCOCCOCCOCCOCCOCCOCCOCCOCCOCCOCCOCCOCCNC(=O)CCCC(=O)NCCOCCOCCOCCOCCOCCOCCOCCOCCOCCOCCOCCOCCOCCOCCOCCOCCOCCOCCOCCOCCOCCOCCOCCn4cc(CCC(=O)NCCCC[C@H](NC(=O)[C@H](C)NC(=O)[C@@H]5CSCC(=O)N6CCN7CCN(CC6)C(=O)CSC[C@H](NC(=O)[C@H](Cc6c[nH]c8ccccc68)NC(=O)[C@H](CC(=O)O)NC(=O)[C@H](C)NC(=O)[C@H](CC(=O)O)NC(=O)[C@@H](NC(=O)[C@H](C)N)CSCC7=O)C(=O)N[C@@H](CC(=O)O)C(=O)N[C@@H](C(C)C)C(=O)N6CCC[C@H]6C(=O)N[C@@H](CO)C(=O)N[C@@H](CC(C)C)C(=O)N6CCC[C@H]6C(=O)N5)C(N)=O)nn4)nn3)C(N)=O)NC(=O)[C@@H]3CCCN3C1=O)C(=O)CSC[C@H](NC(=O)[C@H](C)N)C(=O)N[C@@H](CC(=O)O)C(=O)N[C@@H](C)C(=O)N[C@@H](CC(=O)O)C(=O)N[C@@H](Cc1c[nH]c3ccccc13)C(=O)N2 [BCY12257] (I: H-ACDADWCDVPSLPCAK-NH2 / II: H-ACDADWCDVPSLPCAK-NH2; linker I:2-I:7-I:14, II:2-II:7-II:14 via X1; linker I:16-II:16 via X2) | < 7.11 | 54 | 7.94 | –
2 | CC(C)C[C@@H]1NC(=O)[C@H](CO)NC(=O)[C@@H]2CCCN2C(=O)[C@H](C(C)C)NC(=O)[C@H](CC(=O)O)NC(=O)[C@@H]2CSCC(=O)N3CCN(CCN(CC3)C(=O)CSC[C@@H](C(=O)N[C@@H](C)C(=O)N[C@@H](CCCCNC(=O)CCc3cn(CCOCCOCCOCCOCCOCCOCCOCCOCCOCCOCCOCCOCCOCCOCCOCCOCCOCCOCCOCCOCCOCCOCCOCCNC(=O)CCCC(=O)NCCOCCOCCOCCOCCOCCOCCOCCOCCOCCOCCOCCOCCOCCOCCOCCOCCOCCOCCOCCOCCOCCOCCOCCn4cc(CCC(=O)NCCCC[C@H](NC(=O)[C@H](C)NC(=O)[C@@H]5CSCC(=O)N6CCN7CCN(CC6)C(=O)CSC[C@H](NC(=O)[C@H](Cc6cccc8ccccc68)NC(=O)[C@H](CC(=O)O)NC(=O)[C@H](C)NC(=O)[C@H](CC(=O)O)NC(=O)[C@@H](NC(=O)[C@H](C)N)CSCC7=O)C(=O)N[C@@H](CC(=O)O)C(=O)N[C@@H](C(C)C)C(=O)N6CCC[C@H]6C(=O)N[C@@H](CO)C(=O)N[C@@H](CC(C)C)C(=O)N6CCC[C@H]6C(=O)N5)C(N)=O)nn4)nn3)C(N)=O)NC(=O)[C@@H]3CCCN3C1=O)C(=O)CSC[C@H](NC(=O)[C@H](C)N)C(=O)N[C@@H](CC(=O)O)C(=O)N[C@@H](C)C(=O)N[C@@H](CC(=O)O)C(=O)N[C@@H](Cc1cccc3ccccc13)C(=O)N2 [BCY12258] (I: H-ACDAD[1Nal]CDVPSLPCAK-NH2 / II: H-ACDAD[1Nal]CDVPSLPCAK-NH2; linker I:2-I:7-I:14, II:2-II:7-II:14 via X1; linker I:16-II:16 via X2) | < 7.01 | 57 | 9.39 | –
3 | CC(C)C[C@@H]1NC(=O)[C@H](CO)NC(=O)[C@@H]2CCCN2C(=O)[C@H](C(C)C)NC(=O)[C@H](CC(=O)O)NC(=O)[C@@H]2CSCC(=O)N3CCN(CCN(CC3)C(=O)CSC[C@@H](C(=O)N[C@@H](C)C(=O)N[C@@H](CCCCNC(=O)CCc3cn(CCOCCOCCOCCOCCOCCOCCOCCOCCOCCOCCOCCOCCOCCOCCOCCOCCOCCOCCOCCOCCOCCOCCOCCNC(=O)CCOCC(COCCC(=O)NCCOCCOCCOCCOCCOCCOCCOCCOCCOCCOCCOCCOCCOCCOCCOCCOCCOCCOCCOCCOCCOCCOCCOCCn4cc(CCC(=O)NCCCC[C@H](NC(=O)[C@H](C)NC(=O)[C@@H]5CSCC(=O)N6CCN7CCN(CC6)C(=O)CSC[C@H](NC(=O)[C@H](Cc6c[nH]c8ccccc68)NC(=O)[C@H](CC(=O)O)NC(=O)[C@H](C)NC(=O)[C@H](CC(=O)O)NC(=O)[C@@H](NC(=O)[C@H](C)N)CSCC7=O)C(=O)N[C@@H](CC(=O)O)C(=O)N[C@@H](C(C)C)C(=O)N6CCC[C@H]6C(=O)N[C@@H](CO)C(=O)N[C@@H](CC(C)C)C(=O)N6CCC[C@H]6C(=O)N5)C(N)=O)nn4)(COCCC(=O)NCCOCCOCCOCCOCCOCCOCCOCCOCCOCCOCCOCCOCCOCCOCCOCCOCCOCCOCCOCCOCCOCCOCCOCCn4cc(CCC(=O)NCCCC[C@H](NC(=O)[C@H](C)NC(=O)[C@@H]5CSCC(=O)N6CCN7CCN(CC6)C(=O)CSC[C@H](NC(=O)[C@H](Cc6c[nH]c8ccccc68)NC(=O)[C@H](CC(=O)O)NC(=O)[C@H](C)NC(=O)[C@H](CC(=O)O)NC(=O)[C@@H](NC(=O)[C@H](C)N)CSCC7=O)C(=O)N[C@@H](CC(=O)O)C(=O)N[C@@H](C(C)C)C(=O)N6CCC[C@H]6C(=O)N[C@@H](CO)C(=O)N[C@@H](CC(C)C)C(=O)N6CCC[C@H]6C(=O)N5)C(N)=O)nn4)COCCC(=O)NCCOCCOCCOCCOCCOCCOCCOCCOCCOCCOCCOCCOCCOCCOCCOCCOCCOCCOCCOCCOCCOCCOCCOCCn4cc(CCC(=O)NCCCC[C@H](NC(=O)[C@H](C)NC(=O)[C@@H]5CSCC(=O)N6CCN7CCN(CC6)C(=O)CSC[C@H](NC(=O)[C@H](Cc6c[nH]c8ccccc68)NC(=O)[C@H](CC(=O)O)NC(=O)[C@H](C)NC(=O)[C@H](CC(=O)O)NC(=O)[C@@H](NC(=O)[C@H](C)N)CSCC7=O)C(=O)N[C@@H](CC(=O)O)C(=O)N[C@@H](C(C)C)C(=O)N6CCC[C@H]6C(=O)N[C@@H](CO)C(=O)N[C@@H](CC(C)C)C(=O)N6CCC[C@H]6C(=O)N5)C(N)=O)nn4)nn3)C(N)=O)NC(=O)[C@@H]3CCCN3C1=O)C(=O)CSC[C@H](NC(=O)[C@H](C)N)C(=O)N[C@@H](CC(=O)O)C(=O)N[C@@H](C)C(=O)N[C@@H](CC(=O)O)C(=O)N[C@@H](Cc1c[nH]c3ccccc13)C(=O)N2 [BCY12261] | – | 68 | 10.72 | 7.98
